In the METLIN SMRT retention time set (Domingo-Almenara et al. 2019) one finds RP-LC retention time data, which are given here for 31 compounds.

The series in a line: gradient 5% acetonitrile 3 min, to 50% in 2 min, to 85% in 15 min, held 3 min, 100 µL/min. Particulars: column: Zorbax Extend-C18 2.1 x 50 mm; eluents: water / acetonitrile, 0.1% formic acid. In short, it runs like this:
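Using water and acetonitrile that each contained 0.1% formic acid, mixtures of ~100 pure standards were separated at 100 μL/min on a Zorbax Extend-C18 column (2.1 × 50 mm, 1.8 μm). The HPLC fed a quadrupole time-of-flight mass spectrometer working in positive and negative ionization mode, with dead and dwell volumes of 40 μL and 900 μL. Data were acquired over 3 months. Retention time was read from computationally picked adduct peaks after manual inspection of each.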
As to `CN(CCc1ccccn1)C(=O)C1CCN(c2cnn(C)c(=O)c2)CC1`, the RP-LC retention time is 553 s.

`Cc1ccc(N2C(=O)CN(S(=O)(=O)c3ccccc3)CC2(C)C(=O)NC2CCCC2)cc1` (stereo unspecified) gave an RP-LC retention time of 917 s.

Consider `COC(=O)C1=CN(c2ccc(C)c(C)c2)c2ccccc2S1(=O)=O`, for which the RP-LC retention time was determined as 941 s.

As to `COc1ccc2[nH]cc(CCN3CC(C(=O)Nc4cc(F)cc(F)c4)CC3=O)c2c1` (stereo unspecified), the RP-LC retention time was found to be 821 s.

The compound `CN(CCc1noc(COc2ccccc2)n1)C(=O)Nc1cccc(Br)c1` returned an RP-LC retention time of 964 s.

In the case of `Cc1cccc2nnc(N3CCCC(C(=O)Nc4ccc5c(c4)OCO5)C3)n12` (stereo unspecified), the RP-LC retention time was determined as 664 s.

On to `Cc1ccc(N2C(=O)C3N=NN(Cc4nc(-c5ccc(OC(C)C)cc5)no4)C3C2=O)cc1` (stereo unspecified), for which the RP-LC retention time came to 1110 s.

Turning to `CCOc1ccccc1-c1nc(Cc2noc(-c3cccnc3)n2)c(C)o1`, the RP-LC retention time was 894 s.

`Cc1nc(N2CCN(c3ccccn3)CC2)nc2c1C(=O)CC(c1ccc(Cl)cc1)C2` (stereo unspecified) displayed an RP-LC retention time of 823 s.

In turn, `NC(=O)C1CCN(C(=O)CSc2nnc(-c3sc4ncccc4c3N)n2C2CC2)CC1` displayed an RP-LC retention time of 606 s.

`O=C(C1CCCN(c2ncnc3c2nc2n3CCCCC2)C1)N1CCC(Cc2ccccc2)CC1` (stereo unspecified) returned an RP-LC retention time of 1000 s.

Compound `CCN(CC)C(=O)c1ccc2c(c1)N(CC(=O)N1CCN(c3ccccn3)CC1)C(=O)CS2` showed an RP-LC retention time of 598 s.

On to `Cc1ccc(-n2c(=O)n(CC(=O)Nc3ccc(C)cc3C)c3cccnc32)cc1`, for which the RP-LC retention time was found to be 907 s.

The compound `CC(=O)N1CCCSc2ccc(S(=O)(=O)N(C)c3ccc(C)c(C)c3)cc21` had an RP-LC retention time of 1030 s.

As to `CCCS(=O)(=O)NCCS(=O)(=O)N1CCN(c2cccc(Cl)c2)CC1`, the RP-LC retention time stood at 867 s.

In turn, `COc1ccccc1NC(=O)c1cn(CC2CCCO2)cc2c(=O)n(-c3ccccc3)nc1-2` (stereo unspecified) showed an RP-LC retention time of 983 s.

For the compound `COc1ccc2[nH]c(=O)c(CCC(=O)NCC(C)C)cc2c1`, the RP-LC retention time was 660 s.

Compound `COc1ccc(NC(=O)N2CCCC(Cn3cnc4cccnc43)C2)cc1Cl` (stereo unspecified) registered an RP-LC retention time of 692 s.

Compound `CC1CCN(C(=O)Cc2nnc3cc(-c4nc(C(C)C)no4)ccn23)CC1` displayed an RP-LC retention time of 770 s.

For the compound `O=c1cc(-c2ccc(O)cc2)oc2cc(O[C@@H]3O[C@H](CO)[C@H](O)[C@H](O)[C@H]3O)cc(O)c12`, the RP-LC retention time was 746 s.

In turn, `COc1ccc(C(=O)N2C[C@@H]3C[C@H](NS(=O)(=O)c4ccccc4)[C@H]2C3)cn1` showed an RP-LC retention time of 695 s.

`Cc1cc(C)c2[nH]c3c(c(=O)c2c1)CN(CC(=O)Nc1cccc(F)c1)CC3`: the RP-LC retention time came to 640 s.

In the case of `Cc1ccc(F)cc1S(=O)(=O)N1CCC(N2CCN(Cc3ccccc3)C(=O)C2=O)CC1`, the RP-LC retention time stood at 883 s.

Turning to `Cc1nc(Nc2ccc(F)cn2)sc1C(=O)N1CCN(c2ccc(F)cc2)CC1`, the RP-LC retention time is 861 s.

`CCc1nc(-c2cc(S(=O)(=O)Nc3cc(C)ccc3C)c(C)s2)cs1` showed an RP-LC retention time of 1160 s.

The compound `O=C(NCc1ccco1)c1ccc(NC(=O)C2CCC2)cc1N1CCOCC1` returned an RP-LC retention time of 750 s.

In turn, `COc1ccc(-n2nc(SCC(=O)Nc3cc(F)ccc3F)ccc2=O)cc1` had an RP-LC retention time of 756 s.

Compound `CCc1nc2cc(N3CCC(C(=O)N(CC)CC)CC3)cnc2nc1CC` returned an RP-LC retention time of 712 s.

In turn, `COc1ccc(C)cc1NC(=O)N1c2ccccc2CC1c1nc(C2CC2)no1` (stereo unspecified) displayed an RP-LC retention time of 1150 s.

As to `Cc1cc(Cl)ccc1NS(=O)(=O)c1cc(-c2cc(C(F)(F)F)on2)sc1C`, the RP-LC retention time came to 1260 s.

The compound `Cc1ccc2c(c1)N(S(C)(=O)=O)CCC(C(=O)Nc1ccc(F)c(Cl)c1)O2` (stereo unspecified) showed an RP-LC retention time of 998 s.
